Experimental data taken from patent publication US20210138012A1, “COMPOSITION FOR PREVENTING, AMELIORATING, OR TREATING RESPIRATORY DISEASE COMPRISING SIRAITIA GROSVENORII EXTRACT AS EFFECTIVE COMPONENT” (KOREA INSTITUTE OF ORIENTAL MEDICINE, priority 2018, published 2021).

How the values were obtained:
[1] = test system: IL-5; experiment: IL-5 production in BALF (ELISA), animal asthma model; assay type: in vivo, Balb/c mouse; conditions: OVA-10 mg/kg
Description: (§1) Test was carried out by using an animal model which has been induced to have bronchial asthma by ovalbumin (OVA). As for the test animal, a 7-week old male Balb/c mouse was obtained from Jackson Laboratory (Bar Harbor, Me., USA), and used for the test after acclimation for 1 week. […] On day 3 and day 10 after intraperitoneally administering the first OVA, 2 mg of OVA were administered to the mouse via intratracheal injection. Then, from day 21 onwards for 4 weeks, the mouse was allowed to inhale OVA for 30 minutes by using a ultrasonic sprayer (NE-U12, Omron Co., Tokyo, Japan) (week 1 to week 3; exposed to 1% OVA, week 4; exposed to 2% OVA). Forty-eight hours after the last exposure to OVA, blood was taken from the anesthetized mouse, which was then subjected to autopsy to have observation of a pathological change. […]
(§2) Production amount of interleukins (IL-4, IL-5, and IL-13) in BALF separated from each test animal was measured by a commercially available kit for enzyme-linked immunosorbent assay (ELISA) (R&D System, USA). Analysis of each cytokine was carried out according to the experimental method provided by the manufacturer, and the absorbance at 450 nm was measured using an ELISA reader.

[2] = test system: IL-13; experiment: IL-13 production in BALF (ELISA), animal asthma model; assay type: in vivo, Balb/c mouse; conditions: OVA-10 mg/kg
Description: as §1, §2

[3] = test system: IL-4; experiment: IL-4 production in BALF (ELISA), animal asthma model; assay type: in vivo, Balb/c mouse; conditions: OVA-10 mg/kg
Description: as §1, §2

[4] = test system: RANTES; experiment: Inhibition of RANTES secretion in TNF-α-treated BEAS-2B cells (ELISA); assay type: cell-based; conditions: Homo sapiens, 10 ng/ml TNF-α, 24 hours, read-out: Inhibition rate (%) of RANTES secretion
Description: (§3) BEAS-2B cells (ATCC, USA), which are human bronchial epithelial cells, were cultured in Dulbecco's modified eagle medium (DMEM) added with fetal bovine serum (FBS) and penicillin-streptomycin (PS). BEAS-2B cells were cultured again for 18 hours in a 96-well plate (5×10^4 cells/well) containing DMEM 10% medium. The medium was subsequently removed and replaced with serum-free DMEM.
After that, to measure the secretion amount of RANTES, the cells were simultaneously treated with a test sample and TNF-α (10 ng/ml) and cultured for 24 hours. Secretion amount of RANTES present in cell supernatant was measured by using ELISA kit (R&D systems, USA) according to the manufacturer's protocol. As a positive control group, 0.1 μM dexamethasone was used.

[5] = test system: BEAS-2B pulmonary bronchial cells; experiment: Cytotoxicity in BEAS-2B pulmonary bronchial cells using CCK-8; assay type: cell-based, human; conditions: 0.1 μM
Description: as §3

[6] = test system: TARC; experiment: Inhibition of TARC secretion in TNF-α + IFN-γ + IL-4-treated BEAS-2B cells (ELISA); assay type: cell-based; conditions: Homo sapiens, TNF-α + IFN-γ + IL-4, 24 hours, read-out: Inhibition rate (%) of TARC secretion
Description: as §3
Meanwhile, to measure the secretion amount of TARC, BEAS-2B cells were simultaneously treated with TNF-α (50 ng/ml), IFN-γ (10 ng/ml), and IL-4 (50 ng/ml), and, after culture for 24 hours, the measurement was made by using ELISA kit (R&D systems, USA).

SMILES | IL-5 [1] | IL-13 [2] | IL-4 [3] | inhibition at 0.1 µM [4] | Cell viability (%) [5] | inhibition at 0.1 µM [6]
CC(C)(O)c1ccccc1CC[C@@H](SCC1(CC(=O)O)CC1)c1cccc(/C=C/c2ccc3ccc(Cl)cc3n2)c1 [Montelukast, montelukast] | 27.91 ± 8.61 pg/mL | 89.58 ± 9.46 pg/mL | 60.37 ± 12.05 pg/mL |  |  | 
C[C@@H]1C[C@H]2[C@@H]3CCC4=CC(=O)C=C[C@]4(C)[C@@]3(F)[C@@H](O)C[C@]2(C)[C@@]1(O)C(=O)CO [positive control group, dexamethasone] |  |  |  | 97.1 ± 12.9% | 99.34 ± 0.14% | 28.4 ± 8.77%
